6 molecules from BindingDB's records for doi:10.1021/cb800120t (deCODE Chemistry Inc, 2008) can be followed below.

This assay concerns the target T1, m7GpppX diphosphatase (Homo sapiens, UniProt Q96C86).
T1 sequence (Q96C86 whole entry): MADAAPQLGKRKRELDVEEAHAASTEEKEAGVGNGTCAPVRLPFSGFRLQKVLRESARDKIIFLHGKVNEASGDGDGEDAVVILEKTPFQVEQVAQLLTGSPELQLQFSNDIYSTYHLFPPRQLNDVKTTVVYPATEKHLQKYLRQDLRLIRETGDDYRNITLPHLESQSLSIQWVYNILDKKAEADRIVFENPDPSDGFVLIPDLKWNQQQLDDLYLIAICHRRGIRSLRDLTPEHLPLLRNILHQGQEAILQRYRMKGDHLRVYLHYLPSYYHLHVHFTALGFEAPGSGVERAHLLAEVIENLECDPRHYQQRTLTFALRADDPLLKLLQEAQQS
Kind of assay: Biochemical Assay. The source says: In vitro biochemical assay using scavenger decapping enzyme (DcpS) as a target and cell based assay using SMN2 b-lactamase NSC-34 cell reporter gene.
Regarding `Nc1nc(N)c2c(OCC3CCN(CC(F)(F)F)CC3)cccc2n1` [D158963], the EC50 was found to be 223 nM and the IC50 turned out to be 23.4 nM.

The molecule `CC(=O)Nc1nc(CN2CCC(COc3cccc4nc(N)nc(N)c34)CC2)cs1` [D156676] registered an EC50 of 2540 nM and an IC50 of 339 nM.

In the case of `Nc1nc(N)c2c(OCC3CCN(c4ccccc4Cl)CC3)cccc2n1` [D158885], the midpoint of the response, the EC50, lay at 795 nM and the half-maximal inhibitory concentration (IC50) came to 101 nM.

In turn, `Cn1ccnc1CN1CCC(COc2cccc3nc(N)nc(N)c23)CC1` [D157555] gave a half-maximal effective concentration (EC50) of 108 nM and a half-maximal inhibitory concentration (IC50) of 9.38 nM.

On to `Nc1nc(N)c2c(OCC3CCN(CC4CCNCC4)CC3)cccc2n1` [D157554], for which the half-maximal effective concentration (EC50) was determined as 921 nM. That is a sub-micromolar value.

`Nc1nc(N)c2c(COc3ccccc3I)cccc2n1` [D153215] registered a concentration for a half-maximal effect (EC50) of 243 nM.

In general, EC50 refers to the concentration at which the effect is half-maximal. The low end stands for an effect from little substance, the high end for a need for much substance. The IC50 is the concentration needed to halve the response being measured. Higher therefore signals a need for much substance.
